Experimental data as given in publication PMC6272646, “Understanding the Physicochemical Properties of Mitragynine, a Principal Alkaloid of Mitragyna speciosa, for Preclinical Evaluation” (Molecules, 2015).
Converted amounts (≈) assume the structure as drawn. Where two headings read alike, the source gives them in different places.

Key:
[1] = pKa determination, microplate spectrophotometer method; format: physicochemical; details: aqueous buffer
Excerpt: The instruments employed were UV spectrophotometer 8453 UV-Vis Diode Array (Agilent, Santa Clara, CA, USA), and Multiskan* GO Microplate Spectrophotometer (Thermo Scientific, Waltham, MA, USA). Data were captured using the Thermo Scientific SkanIt Software (Thermo Scientific, Version 3.2). Buffer Maker Software (version 1.0.1.55, BPP Marcin Borkowski, Marki, Poland,) was used for preparation of buffers with constant ionic strength for pKa determination. The pH-meter employed throughout the study was a PH 211 Hanna (Padova, Italy) equipped with a combined glass electrode.
pKa determination was carried out using conventional UV and microplate spectrophotometer methods. Acetic acid, tris base and sodium carbonate were used to prepare stable buffers in the pH range of 3 to 12. The buffers were prepared to give a final buffer molarity of 0.01 M. Either NaOH or HCl were used for pH adjustment of the various buffers, whose ionic strength was kept constant at 0.02 by addition of NaCl.
Stock solution of mitragynine at 0.5 mg/mL was prepared in acetonitrile. Ten microliters of the stock solution was transferred into individual test tubes and diluted with 1.0 mL buffer of various pH to give a final concentration of 5 μg/mL. For absorbance spectrum analysis, 250 μL of the various pH buffer solutions spiked with drug were placed in a 96-well quartz UV-transparent microplate and immediately scanned in the range of 200–400 nm at a scanning rate of 200 nm/s in triplicates. The pKa was calculated with equation pKa = pH + log (d − dm/di − d), for basic compound, where di is the absorbance of the ionised species, d is the absorbance of the solution tested and dm is the absorbance of the neutral species.

[2] = Equilibrium solubility in water and buffers (HPLC-UV); format: physicochemical
Description: The HPLC system consisted of a Jasco delivery pump (Tokyo, Japan) equipped with autosampler connected to a Waters 2487 detector (Milford, MA, USA) coupled to Jasco Chromnav software (Version 2.0, Tokyo, Japan). Chromatographic separation was performed on a C8 Agilent Eclipse plus (4.6 mm i.d. × 250 mm, 5-μm particle size; Apple Valley, MN, USA). The HPLC-UV method was adapted from our previous study and revalidated for the present HPLC system. The method was employed to quantify mitragynine in partition coefficient, stability, dissolution and solubility studies.
For solubility studies, an excess of mitragynine was added to 1.0 mL each of distilled water or buffers at pH 4, 7 and 9. The test tubes were placed in a water bath shaker at 37 degrees Celsius at 100 cycles/min for 48 h until equilibrium. The samples were centrifuged at 3000 rpm for 5 min and supernatant was taken for quantification of mitragynine by HPLC-UV. For stability studies, analogous buffers were used, but they were spiked with mitragynine in acetonitrile to give a concentration of 20 µg/mL (organic content was kept below 1%). A 0.1 mL aliquot was collected from each buffer system at intervals of 0, 0.5, 6.0 and 24.0 h for determination of mitragynine. Mitragynine concentrations were expressed as percentage recovered. All experiments were performed in triplicates.

[3] = In vitro release (dissolution) from capsules filled with mitragynine pure standard; format: physicochemical; details: up to 2 h, capsule, basket method, 50 rpm, 37 °C
Description: Hard shell gelatin capsules filled with mitragynine pure standard were used in the in vitro dissolution study. In order to characterize the release of mitragynine, drug release profile was generated, in which mitragynine release values were determined as a function of time. The US pharmacopoeia I (basket) method was used for the in vitro dissolution study. SGF (pH 1.2) and SIF (pH 6.8) were prepared without enzymes. These media were used for the dissolution study, respectively. The capsule filled with mitragyine was introduced into 500 mL of dissolution medium. The capsule was agitated at 50 rpm at 37 °C. An aliquot (1 mL) of sample was withdrawn at predetermined time intervals of 5, 10, 15, 30, 40, 60, 90 and 120 min after onset of the dissolution. The samples were filtered through 0.45 um PTFE syringe filters, diluted with ACN (1:1) and the drug concentration was determined by the validated RP-HPLC-UV method. Samples were analyzed along with QC samples.

[4] = rats, cited from earlier work
rats [5] = tested on: rats; design: method as in Macko et al, 15; details: mitragynine salt solution, ref Macko et al, 15; cited from earlier work
rats [6] = tested on: rats; design: method as in PMID 25262913; details: cited from earlier work
[7] = Stability in simulated intestinal fluid (SIF, with enzymes); details: for Concentration Found in SIF: SIF pH 6.8 with pancreatin

SMILES: CC[C@@H]1CN2CCc3c([nH]c4cccc(OC)c34)[C@@H]2C[C@@H]1/C(=C\OC)C(=O)OC [mitragynine]
- pKa ([1]; Microplate Spectrophotometer, Day 1, read-out: pKa, interday repeatability): 8.18
- pKa ([1]; Microplate Spectrophotometer, Day 2, read-out: pKa, interday repeatability): 8.1
- pKa ([1]; Microplate Spectrophotometer, Day 3, read-out: pKa, interday repeatability): 8.12
- pKa ([1]; pH 7.55, target pH 7.6, actual pH 7.55, 5 µg/mL, 248 nm, read-out: pKa): 8.09
- pKa ([1]; pH 7.6, microplate method, mean over pH 7.6-9.0, read-out: pKa (Mean ± SD)): 8.08 ± 0.04
- pKa ([1]; pH 7.76, target pH 7.8, actual pH 7.76, 5 µg/mL, 248 nm, read-out: pKa): 8.11
- pKa ([1]; pH 7.94, target pH 8.0, actual pH 7.94, 5 µg/mL, 248 nm, read-out: pKa): 8.03
- pKa ([1]; pH 8.15, target pH 8.2, actual pH 8.15, 5 µg/mL, 248 nm, read-out: pKa): 8.09
- pKa ([1]; pH 8.32, target pH 8.4, actual pH 8.32, 5 µg/mL, 248 nm, read-out: pKa): 8.1
- pKa ([1]; pH 8.5, target pH 8.6, actual pH 8.50, 5 µg/mL, 248 nm, read-out: pKa): 8.03
- pKa ([1]; pH 8.66, target pH 8.8, actual pH 8.66, 5 µg/mL, 248 nm, read-out: pKa): 8.15
- pKa ([1]; pH 8.8, target pH 9.0, actual pH 8.80, 5 µg/mL, 248 nm, read-out: pKa): 8.06
- solubility at 48 h ([2]; aqueous buffer, thermodynamic from solid, buffer pH 4, 37 °C): 3500 ± 10 µg/mL (≈ 8780 µM)
- solubility at 48 h ([2]; aqueous buffer, thermodynamic from solid, buffer pH 7, 37 °C): 88.9 ± 1.6 µg/mL (≈ 223 µM)
- solubility at 48 h ([2]; aqueous buffer, thermodynamic from solid, buffer pH 9, 37 °C): 18.7 ± 0.4 µg/mL (≈ 46.9 µM)
- solubility at 48 h ([2]; distilled water, thermodynamic from solid, water, 37 °C): 64.6 ± 1.2 µg/mL (≈ 162 µM)
- solubility at 48 h ([2]; distilled water, water, 37 °C): < 100 µg/mL
- drug released (dissolution) ([3]; SGF pH 1.2 without enzymes): 80%
- drug released (dissolution) ([3]; SIF pH 6.8 without enzymes): 22%
- Cmax ([4]; oral dose 20–50 mg/kg): 400 to 2300 ng/mL
- half-life ([4]; oral dose 20–50 mg/kg): 3.8 to 9.4 h
- absolute oral bioavailability [4]: ≈ 3%
- dose up to which no adverse reactions were reported (rats [5]): 806 mg/kg
- addictive potential effects (rats [6]; i.p. in Tween 80, high (30 mg/kg) and moderate (10 mg/kg) doses): observed
- addictive potential effects (rats [6]; i.p. in Tween 80, mild (5 mg/kg) and low (1 mg/kg) doses): absent
- Concentration Found in SIF ([7]; 0 min, 37 °C): 6700 ± 600 ng/mL
- RD (relative difference vs time 0) in SIF ([7]; 10 min): −0.07%
- Concentration Found in SIF ([7]; 10 min, 37 °C): 6690 ± 630 ng/mL
- Concentration Found in SIF ([7]; 20 min, 37 °C): 6560 ± 670 ng/mL
- RD (relative difference vs time 0) in SIF ([7]; 30 min): 4.43%
- Concentration Found in SIF ([7]; 30 min, 37 °C): 6990 ± 210 ng/mL
- RD (relative difference vs time 0) in SIF ([7]; 40 min): 4.94%
- Concentration Found in SIF ([7]; 40 min, 37 °C): 7030 ± 130 ng/mL
- RD (relative difference vs time 0) in SIF ([7]; 50 min): 3.49%
- Concentration Found in SIF ([7]; 50 min, 37 °C): 6930 ± 130 ng/mL
- RD (relative difference vs time 0) in SIF ([7]; 60 min): 2.49%
- Concentration Found in SIF ([7]; 60 min, 37 °C): 6860 ± 10 ng/mL
- RD (relative difference vs time 0) in SIF ([7]; 120 min): 1.31%
- Concentration Found in SIF ([7]; 120 min, 37 °C): 6780 ± 790 ng/mL
- RD (relative difference vs time 0) in SIF ([7]; 180 min): 3.46%
- Concentration Found in SIF ([7]; 180 min, 37 °C): 6930 ± 770 ng/mL
- stability in SIF (in words) ([7]; SIF pH 6.8, 3 h, 37 °C): considered stable
